The supplement of paper PMC10307832

Columns and labels:
Assay in all cases: relative viability (nuclei count vs DMSO), 5 days (fraction); higher = more cells survive
RERF-LC-KJ = tested on: RERF-LC-KJ
Summary of the method: (§1)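 Cells from lung cancer lines were seeded into 1536-well plates and, one day later, dosed by pin tool. Treatments were either a single drug or a fixed dose of an anchor drug with five library-drug doses (not always all listed) in √10 steps. After 5 days, nuclei were stained in a one-step fixation (final 0.05% Triton X-100, 1% formaldehyde, 1 ug/ml Hoechst) and counted on 4× images, and relative viability is the treated-to-vehicle nuclei ratio, as the median of duplicate plates.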

NCI-H23 = tested on: NCI-H23
Summary of the method: as §1

LOU-NH91 = tested on: LOU-NH91
Summary of the method: as §1

NCI-H1666 = tested on: NCI-H1666
Summary of the method: as §1

NCI-H460 = tested on: NCI-H460
Summary of the method: as §1

NCI-H1355 = tested on: NCI-H1355
Summary of the method: as §1

EKVX = tested on: EKVX
Summary of the method: as §1

NCI-H650 = tested on: NCI-H650
Summary of the method: as §1

NCI-H838 = tested on: NCI-H838
Summary of the method: as §1

NCI-H1650 = tested on: NCI-H1650
Summary of the method: as §1

LU99A = tested on: LU99A
Summary of the method: as §1

NCI-H1993 = tested on: NCI-H1993
Summary of the method: as §1

BEN = tested on: BEN
Summary of the method: as §1

A-427 = tested on: A-427
Summary of the method: as §1

SW 1573 = tested on: SW 1573
Summary of the method: as §1

LC-2-ad = tested on: LC-2-ad
Summary of the method: as §1

NCI-H1915 = tested on: NCI-H1915
Summary of the method: as §1

NCI-H1793 = tested on: NCI-H1793
Summary of the method: as §1

NCI-H520 = tested on: NCI-H520
Summary of the method: as §1

LCLC-97TM1 = tested on: LCLC-97TM1
Summary of the method: as §1

NCI-H2228 = tested on: NCI-H2228
Summary of the method: as §1

PC-3 [JPC-3] = tested on: PC-3 [JPC-3]
Summary of the method: as §1

NCI-H2347 = tested on: NCI-H2347
Summary of the method: as §1

O=C(O)CCCCC(CCSCc1ccccc1)SCc1ccccc1 (centres undefined) [CPI-613] + COc1cc2c(Oc3ccc(NC(=O)C4(C(=O)Nc5ccc(F)cc5)CC4)cc3F)ccnc2cc1OCCCN1CCOCC1 [Foretinib] (partner 0.25 µM)
relative viability (RERF-LC-KJ; first compound 5 µM): 0.878
relative viability (RERF-LC-KJ; first compound 15.81 µM): 0.763
relative viability (RERF-LC-KJ; first compound 50 µM): 0.889
relative viability (RERF-LC-KJ; first compound 158.11 µM): 0.882
relative viability (RERF-LC-KJ; first compound 500 µM): 0.851
relative viability (NCI-H23; first compound 5 µM): 1.03
relative viability (NCI-H23; first compound 15.81 µM): 0.917
relative viability (NCI-H23; first compound 50 µM): 0.985
relative viability (NCI-H23; first compound 158.11 µM): 0.402
relative viability (NCI-H23; first compound 500 µM): 0.0153
relative viability (LOU-NH91; first compound 5 µM): 0.863
relative viability (LOU-NH91; first compound 15.81 µM): 0.902
relative viability (LOU-NH91; first compound 50 µM): 0.949
relative viability (LOU-NH91; first compound 158.11 µM): 0.963
relative viability (LOU-NH91; first compound 500 µM): 0.916
relative viability (NCI-H1666; first compound 5 µM): 0.944
relative viability (NCI-H1666; first compound 15.81 µM): 0.901
relative viability (NCI-H1666; first compound 50 µM): 0.971
relative viability (NCI-H1666; first compound 158.11 µM): 0.397
relative viability (NCI-H1666; first compound 500 µM): 0.206
relative viability (NCI-H460; first compound 5 µM): 0.979
relative viability (NCI-H460; first compound 15.81 µM): 0.978
relative viability (NCI-H460; first compound 50 µM): 1.01
relative viability (NCI-H460; first compound 158.11 µM): 0.479
relative viability (NCI-H460; first compound 500 µM): 0.0276
relative viability (NCI-H1355; first compound 5 µM): 0.941
relative viability (NCI-H1355; first compound 15.81 µM): 0.94
relative viability (NCI-H1355; first compound 50 µM): 0.998
relative viability (NCI-H1355; first compound 158.11 µM): 0.455
relative viability (NCI-H1355; first compound 500 µM): 0.137
relative viability (EKVX; first compound 5 µM): 0.83
relative viability (EKVX; first compound 15.81 µM): 0.754
relative viability (EKVX; first compound 50 µM): 0.983
relative viability (EKVX; first compound 158.11 µM): 0.399
relative viability (EKVX; first compound 500 µM): 0.531
relative viability (NCI-H650; first compound 5 µM): 0.947
relative viability (NCI-H650; first compound 15.81 µM): 1
relative viability (NCI-H650; first compound 50 µM): 0.979
relative viability (NCI-H650; first compound 158.11 µM): 0.836
relative viability (NCI-H650; first compound 500 µM): 0.806
relative viability (NCI-H838; first compound 5 µM): 0.98
relative viability (NCI-H838; first compound 15.81 µM): 1.02
relative viability (NCI-H838; first compound 50 µM): 1.03
relative viability (NCI-H838; first compound 158.11 µM): 0.657
relative viability (NCI-H838; first compound 500 µM): 0.116
relative viability (NCI-H1650; first compound 5 µM): 1.35
relative viability (NCI-H1650; first compound 15.81 µM): 0.905
relative viability (NCI-H1650; first compound 50 µM): 1.16
relative viability (NCI-H1650; first compound 158.11 µM): 0.0583
relative viability (NCI-H1650; first compound 500 µM): 0.0222
relative viability (LU99A; first compound 5 µM): 0.83
relative viability (LU99A; first compound 15.81 µM): 0.776
relative viability (LU99A; first compound 50 µM): 0.733
relative viability (LU99A; first compound 158.11 µM): 0.461
relative viability (LU99A; first compound 500 µM): 0.112
relative viability (NCI-H1993; first compound 5 µM): 0.829
relative viability (NCI-H1993; first compound 15.81 µM): 0.78
relative viability (NCI-H1993; first compound 50 µM): 0.961
relative viability (NCI-H1993; first compound 158.11 µM): 0.509
relative viability (NCI-H1993; first compound 500 µM): 0.452
relative viability (BEN; first compound 5 µM): 0.728
relative viability (BEN; first compound 15.81 µM): 0.443
relative viability (BEN; first compound 50 µM): 0.602
relative viability (BEN; first compound 158.11 µM): 0.499
relative viability (BEN; first compound 500 µM): 0.508
relative viability (A-427; first compound 5 µM): 1.14
relative viability (A-427; first compound 15.81 µM): 1.11
relative viability (A-427; first compound 50 µM): 0.86
relative viability (A-427; first compound 158.11 µM): 0.526
relative viability (A-427; first compound 500 µM): 0.131
relative viability (SW 1573; first compound 5 µM): 0.943
relative viability (SW 1573; first compound 15.81 µM): 0.807
relative viability (SW 1573; first compound 50 µM): 0.844
relative viability (SW 1573; first compound 158.11 µM): 0.88
relative viability (SW 1573; first compound 500 µM): 0.871
relative viability (LC-2-ad; first compound 5 µM): 0.842
relative viability (LC-2-ad; first compound 15.81 µM): 0.796
relative viability (LC-2-ad; first compound 50 µM): 0.957
relative viability (LC-2-ad; first compound 158.11 µM): 0.434
relative viability (LC-2-ad; first compound 500 µM): 0.0582
relative viability (NCI-H1915; first compound 5 µM): 1.04
relative viability (NCI-H1915; first compound 15.81 µM): 1.09
relative viability (NCI-H1915; first compound 50 µM): 1.06
relative viability (NCI-H1915; first compound 158.11 µM): 0.309
relative viability (NCI-H1915; first compound 500 µM): 0.132
relative viability (NCI-H1793; first compound 5 µM): 0.608
relative viability (NCI-H1793; first compound 15.81 µM): 0.618
relative viability (NCI-H1793; first compound 50 µM): 0.827
relative viability (NCI-H1793; first compound 158.11 µM): 0.385
relative viability (NCI-H1793; first compound 500 µM): 0.0145
relative viability (NCI-H520; first compound 5 µM): 0.755
relative viability (NCI-H520; first compound 15.81 µM): 0.784
relative viability (NCI-H520; first compound 50 µM): 0.623
relative viability (NCI-H520; first compound 158.11 µM): 0.523
relative viability (NCI-H520; first compound 500 µM): 0.142
relative viability (LCLC-97TM1; first compound 5 µM): 0.95
relative viability (LCLC-97TM1; first compound 15.81 µM): 0.935
relative viability (LCLC-97TM1; first compound 50 µM): 0.926
relative viability (LCLC-97TM1; first compound 158.11 µM): 0.324
relative viability (LCLC-97TM1; first compound 500 µM): 0.0466
relative viability (NCI-H2228; first compound 5 µM): 0.719
relative viability (NCI-H2228; first compound 15.81 µM): 0.948
relative viability (NCI-H2228; first compound 50 µM): 0.78
relative viability (NCI-H2228; first compound 158.11 µM): 0.332
relative viability (NCI-H2228; first compound 500 µM): 0.088
relative viability (PC-3 [JPC-3]; first compound 5 µM): 0.973
relative viability (PC-3 [JPC-3]; first compound 15.81 µM): 0.899
relative viability (PC-3 [JPC-3]; first compound 50 µM): 0.916
relative viability (PC-3 [JPC-3]; first compound 158.11 µM): 0.163
relative viability (PC-3 [JPC-3]; first compound 500 µM): 0.139
relative viability (NCI-H2347; first compound 5 µM): 0.7
relative viability (NCI-H2347; first compound 15.81 µM): 1.05
relative viability (NCI-H2347; first compound 50 µM): 1.09
relative viability (NCI-H2347; first compound 500 µM): 1.05
